Measurements as given in the RepoRT retention time repository (doi:10.1021/es4044374).

Test: RP, Waters XBridge C18, 50 × 2.1 mm, 3.5 µm, 30 °C, 0.2 mL/min, estimated dead time 0.55 min; A: water + 0.1% formic acid, pH 3; B: methanol + 0.1% formic acid, pH 3; gradient (min/%B) 0/10 4/50 17/95 25/95 25.1/10 30/10
Conditions: stereoisomer not certain

Row | Structure (SMILES) | LC retention time
1 | CCNS(=O)(=O)C(F)(F)C(F)(F)C(F)(F)C(F)(F)C(F)(F)C(F)(F)C(F)(F)C(F)(F)F [N-Ethylperfluoroctansulfonamid (N-EtFOSA)] | 17.1 min
2 | CC(O)(CS(=O)(=O)c1ccc(F)cc1)C(=O)Nc1ccc(C#N)c(C(F)(F)F)c1 (stereo not given) [Bicalutamide] | 9.9 min
3 | CC(=O)Nc1ccc(S(=O)(=O)Nc2ncccn2)cc1 [N4-Acetylsulfadiazine] | 3.6 min
4 | N#CN=C1SCCN1Cc1ccc(Cl)nc1 [Thiacloprid] | 5.8 min
5 | N#CCNC(=O)c1cnccc1C(F)(F)F [Flonicamid] | 3.9 min
6 | Nc1nnc(-c2cccc(Cl)c2Cl)c(N)n1 [Lamotrigine] | 5.4 min
7 | Cc1cc(Cl)ccc1OC(C)C(=O)O (stereo not given) [Mecoprop] | 10.8 min
8 | N#Cc1cc(Br)c(O)c(Br)c1 [Bromoxynil] | 8.3 min
9 | CCCCNC(=O)OCC#CI [Iodocarb] | 8.4 min
10 | O=S(=O)(O)c1ccc2ccc(S(=O)(=O)O)cc2c1 [2,7-Naphthalenedisulfonic acid] | 1.2 min
11 | CSc1nc(N)nc(NC(C)(C)C)n1 [Irgarol-descyclopropyl] | 6.7 min
12 | CCN(CC)CCNC(=O)c1cc(Cl)c(N)cc1OC [Metoclopramide] | 4.3 min
13 | CCOCN(C(=O)C(=O)O)c1c(C)cccc1CC [Acetochlor OXA] | 7.5 min
14 | COC(=O)C1C(OC(=O)c2ccccc2)CC2CCC1N2C (stereo not given) [Cocaine] | 5 min
15 | CCN(CC)CC(=O)Nc1c(C)cccc1C [Lidocaine] | 4.2 min
16 | CNC(=C[N+](=O)[O-])NCCSCc1ccc(CN(C)C)o1 [Ranitidine] | 1.9 min
17 | C[Si](Cn1cncn1)(c1ccc(F)cc1)c1ccc(F)cc1 [Flusilazole] | 12.4 min
18 | CC(C)Nc1nc(N)nc(Cl)n1 [Atrazine-desethyl] | 5.6 min
19 | Cc1cc(C2CC2)nc(Nc2ccccc2)n1 [Cyprodinil] | 9.4 min
20 | CC(=O)Nc1c(I)c(NC(C)=O)c(I)c(C(=O)O)c1I [Diatrizoate] | 1.6 min
21 | CNCCCC(C#N)(c1ccc(OC)c(OC)c1)C(C)C (stereo not given) [D617] | 6.3 min
22 | CC(C)NCC(O)c1ccc(NS(C)(=O)=O)cc1 (stereo not given) [Sotalol] | 1.6 min
23 | CN(C)C(=O)Nc1ccc(Cl)c(Cl)c1 [Diuron] | 8.9 min

Row | Structure (SMILES) | LC retention time
24 | COCC(C)N(C(=O)CS(=O)(=O)O)c1c(C)csc1C (stereo not given) [Dimethenamide ESA] | 6.7 min
25 | O=C(O)c1ccccc1Nc1cccc(C(F)(F)F)c1 [Flufenamic acid] | 14.6 min
26 | COC(=O)C(Cc1ccccc1)NC(=O)C(N)CC(=O)O (stereo not given) [Aspartame] | 4.8 min
27 | COP(=S)(OC)Oc1nc(Cl)c(Cl)cc1Cl [Chlorpyrifos-methyl] | 14 min
28 | CCN(CC)C(=O)SCc1ccccc1Cl [Orbencarb] | 13.3 min
29 | CCNc1nc(NCC)[nH]c(=O)n1 [Simazine-2-hydroxy] | 3.5 min
30 | CN1CCC23c4c5ccc(O)c4OC2C(O)C=CC3C1C5 (stereo not given) [Morphine] | 1.1 min
31 | O=C(O)COCCN1CCN(C(c2ccccc2)c2ccc(Cl)cc2)CC1 (stereo not given) [Cetirizine] | 9.3 min
32 | COc1ccc2c(c1)c(CC(=O)O)c(C)n2C(=O)c1ccc(Cl)cc1 [Indomethacin] | 12.9 min
33 | CCNc1nc(NC(C)(C)C)[nH]c(=O)n1 [Terbutylazine-2-hydroxy] | 5.6 min
34 | COC(=O)c1sccc1S(=O)(=O)NC(=O)Nc1nc(C)nc(OC)n1 [Thifensulfuron-methyl] | 7.2 min
35 | COc1c(C)c2c(c(O)c1CC=C(C)CCC(=O)O)C(=O)OC2 [Mycophenolic acid] | 9.9 min
36 | COCc1cnc(C2=NC(C)(C(C)C)C(=O)N2)c(C(=O)O)c1 (stereo not given) [Imazamox] | 5.7 min
37 | N#Cc1nn(-c2c(Cl)cc(C(F)(F)F)cc2Cl)c(N)c1S(=O)(=O)C(F)(F)F [Fipronil-sulfone] | 13.5 min
38 | CC1(C)C(=O)Oc2ccc(OS(C)(=O)=O)cc21 [Ethofumesate-2-keto] | 6 min
39 | Nc1cn[nH]c(=O)c1Cl [Chloridazone-desphenyl] | 1.3 min
40 | COCC(C)N(C(=O)CCl)c1c(C)csc1C (stereo not given) [Dimethenamid-P] | 10 min
41 | CC(C)N(C(=O)C(=O)O)c1ccccc1 [Propachlor OXA] | 5.6 min
42 | COc1cccc(C(=O)NN(C(=O)c2cc(C)cc(C)c2)C(C)(C)C)c1C [Methoxyfenozide] | 10.9 min
43 | c1ccc(C2CN3CCSC3=N2)cc1 (stereo not given) [Levamisole] | 2.9 min
44 | CCNc1nc(NC(C)(C)C)nc(OC)n1 [Terbumeton] | 6.7 min
45 | N#Cc1cc(I)c(O)c(I)c1 [Ioxynil] | 9.3 min
46 | O=C1NS(=O)(=O)c2ccccc21 [Saccharin] | 2.5 min

Row | Structure (SMILES) | LC retention time
47 | Cn1sc(Cl)cc1=O [5-Chloro-2-methyl-4-isothiazolin-3-one (CMI)] | 3.7 min
48 | CCCCc1oc2ccc(NS(C)(=O)=O)cc2c1C(=O)c1ccc(OCCCN(CCCC)CCCC)cc1 [Dronedarone] | 11.5 min
49 | Fc1ccc(C2(Cn3cncn3)OC2c2ccccc2Cl)cc1 (stereo not given) [Epoxiconazole] | 11.7 min
50 | CC(C)OC(=O)C(C)(C)Oc1ccc(C(=O)c2ccc(Cl)cc2)cc1 [Fenofibrate] | 15.7 min
51 | O=C(O)C=C(F)C(F)(F)C(F)(F)C(F)(F)C(F)(F)C(F)(F)C(F)(F)C(F)(F)F [8:2 fluorotelomer unsaturated carboxylic acid] | 16.1 min
52 | CNCCC(Oc1ccc(C(F)(F)F)cc1)c1ccccc1 (stereo not given) [Fluoxetine] | 9.2 min
53 | O=C1NCCN1Cc1ccc(Cl)nc1 [Imidacloprid-urea] | 4.6 min
54 | O=C(O)C(F)(F)C(F)(F)C(F)(F)C(F)(F)C(F)(F)C(F)(F)C(F)(F)C(F)(F)C(F)(F)C(F)(F)F [Perfluoroundecanoic acid] | 16.3 min
55 | CCS(=O)(=O)c1cccnc1S(=O)(=O)NC(=O)Nc1nc(OC)cc(OC)n1 [Rimsulfuron] | 7.9 min
56 | Cc1cc(C)nc(Nc2ccccc2)n1 [Pyrimethanil] | 7.6 min
57 | CN(C)S(=O)(=O)Nc1ccccc1 [N,N-Dimethyl-N'-phenylsulfamide] | 6.3 min
58 | CCC(CC)OC1C=C(C(=O)O)CC(N)C1NC(C)=O (stereo not given) [Oseltamivir carboxylate] | 5.1 min
59 | CC1COC(=O)c2cc3c(cc21)C(C)(C)C(C)C3(C)C (stereo not given) [Galaxolidone] | 14.7 min
60 | CCOCCN(C(=O)CCl)C(=C(C)C)c1ccccc1 [Pethoxamide] | 11.5 min
61 | CCNc1nc(NC(C)CC)nc(OC)n1 (stereo not given) [Secbumeton] | 6.7 min
62 | Nc1ccc(S(=O)(=O)O)cc1 [Sulfanilic acid] | 0.9 min
63 | CC(C)N(C(=O)CS(=O)(=O)O)c1ccc(F)cc1 [Flufenacet ESA] | 6 min
64 | CC(NC(C)(C)C)C(=O)c1cccc(Cl)c1 (stereo not given) [Bupropion] | 5.8 min
65 | CCCN(CCC)c1c([N+](=O)[O-])cc(C(F)(F)F)cc1[N+](=O)[O-] [Trifluralin] | 16.5 min
66 | CC(C)NCC(O)COc1ccc(CC(=O)O)cc1 (stereo not given) [Atenolol acid] | 3.8 min
67 | CSc1nc(NC(C)C)nc(NC(C)C)n1 [Prometryn] | 8.5 min
68 | CNC(C)Cc1ccccc1 (stereo not given) [Methamphetamine] | 3.7 min
69 | CC(=O)NCCCS(=O)(=O)O [Acamprosate] | 1 min

Row | Structure (SMILES) | LC retention time
70 | CCC(C)n1c(=O)[nH]c(C)c(Br)c1=O (stereo not given) [Bromacil] | 7 min
71 | Nc1c(Cl)c(F)nc(OCC(=O)O)c1Cl [Fluroxypyr] | 6.9 min
72 | CCc1cccc(CC)c1N(COC)C(=O)CS(=O)(=O)O [Alachlor ESA] | 7.7 min
73 | O=C(O)COc1ccc(Cl)cc1Cl [2,4-D] | 9.1 min
74 | CS(=O)(=O)c1ccc(C(=O)C2C(=O)CCCC2=O)c(Cl)c1 [Sulcotrione] | 6.8 min
75 | CNCC(c1ccc(O)cc1)C1(O)CCCCC1 (stereo not given) [N,O-Didesmethylvenlafaxine] | 4.9 min
76 | CC(=O)Nc1ccc(S(=O)(=O)Nc2cc(C)on2)cc1 [N4-Acetylsulfamethoxazole] | 5.5 min
77 | CN(C)C(=O)Nc1ccc(Cl)cc1 [Monuron] | 6.7 min
78 | CON(C)C(=O)Nc1ccc(Cl)c(Cl)c1 [Linuron] | 10 min
79 | O=C(O)C(F)(F)C(F)(F)C(F)(F)C(F)(F)C(F)(F)F [Perfluorohexanoic acid] | 9.3 min
80 | CCc1cccc(CC)c1N(COC)C(=O)CCl [Alachlor] | 11.7 min
81 | CCC(C)(C)C(=O)OC1CC(C)C=C2C=CC(C)C(CCC3CC(O)CC(=O)O3)C21 (stereo not given) [Simvastatin] | 16 min
82 | CN=CNc1ccc(C)cc1C [N'-(2,4-Dimethylphenyl)-N-methylformamidine] | 4.5 min
83 | CC1(C)CC1C(=O)NC(=CCCCCSCC(N)C(=O)O)C(=O)O (stereo not given) [Cilastatin] | 5.2 min
84 | Cc1cc(=O)n(-c2ccccc2)n1C [Antipyrine] | 4.6 min
85 | CCCCC(C#N)(Cn1cncn1)c1ccc(Cl)cc1 (stereo not given) [Myclobutanil] | 11.2 min
86 | Cc1cc(NS(=O)(=O)c2ccc(N)cc2)no1 [Sulfamethoxazole] | 4.6 min
87 | O=c1[nH]c2c(c(=O)n1C1CCCCC1)CCC2 [Lenacil] | 8.6 min
88 | CNC(=C[N+](=O)[O-])NCCSCc1ccc(C[N+](C)(C)[O-])o1 [Ranitidine N-oxide] | 2.4 min
89 | CNC(C)C(O)c1ccccc1 (stereo not given) [Ephedrine] | 2.9 min
90 | COC(=O)C(Cc1ccccc1)NC(=O)C(CC(=O)O)NCCC(C)(C)C (stereo not given) [Neotame] | 9 min
